From article PMC7037682, “Herb–Drug Interaction of Red Ginseng Extract and Ginsenoside Rc with Valsartan in Rats” (Molecules, 2020)
Like-named read-outs stand apart in the source and are kept apart here.

Key:
OATP1B1 = biological target: T1, OATP1B1 (Homo sapiens, UniProt Q9Y6L6); test: Inhibition of OATP1B1-mediated [3H]estrone-3-sulfate uptake in HEK293-OATP1B1 cells
T1 sequence (Q9Y6L6 1-691): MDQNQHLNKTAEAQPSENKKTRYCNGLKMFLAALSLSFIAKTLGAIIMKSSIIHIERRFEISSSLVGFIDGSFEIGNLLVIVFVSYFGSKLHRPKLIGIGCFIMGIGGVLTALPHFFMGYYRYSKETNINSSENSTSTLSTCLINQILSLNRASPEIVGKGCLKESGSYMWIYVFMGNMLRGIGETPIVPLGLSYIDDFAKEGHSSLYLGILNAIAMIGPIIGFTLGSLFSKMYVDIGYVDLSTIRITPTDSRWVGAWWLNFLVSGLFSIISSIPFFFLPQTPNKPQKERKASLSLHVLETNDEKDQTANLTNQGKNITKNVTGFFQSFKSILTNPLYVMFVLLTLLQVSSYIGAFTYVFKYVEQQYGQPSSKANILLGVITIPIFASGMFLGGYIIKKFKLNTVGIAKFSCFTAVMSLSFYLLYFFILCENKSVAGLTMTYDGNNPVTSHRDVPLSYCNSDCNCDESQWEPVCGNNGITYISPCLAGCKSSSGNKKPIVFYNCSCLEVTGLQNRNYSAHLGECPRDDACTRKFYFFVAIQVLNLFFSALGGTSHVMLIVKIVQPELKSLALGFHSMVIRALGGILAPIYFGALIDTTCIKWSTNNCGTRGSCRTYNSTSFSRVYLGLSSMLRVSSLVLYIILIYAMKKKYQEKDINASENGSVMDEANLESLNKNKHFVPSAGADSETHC
Protocol: (§1) HEK293 cells overexpressing the OCT1, OCT2, OAT1, OAT3, OATP1B1, and OATP1B3 transporters (HEK293-OCT1, -OCT2, -OAT1, -OAT3, -OATP1B1, and -OATP1B3, respectively) and HEK293-mock cells (Corning Life Sciences; Woburn, MA, USA) were used and characterized as previously described.
(§2) HEK293 cells overexpressing drug transporters and HEK293-mock cells were seeded in poly-D-lysine-coated 96-well plates at a density of 10^5 cells/well and were cultured in DMEM supplemented with 10% FBS, 5 mM non-essential amino acids, and 2 mM sodium butyrate in a humidified atmosphere with 8% CO2 at 37 °C.
(§3) To examine the effects of ginsenosides and typical inhibitors on transporter activity, aliquots (100 μL) of HBSS containing the probe substrate and ginsenosides or typical inhibitors were added to the cells after aspirating pre-incubated HBSS. The concentrations and probe substrates were as follows: 0.1 μM [^3H]MPP^+ for OCT1 and OCT2, 0.1 μM [^3H]PAH for OAT1, 0.1 μM [^3H]ES for OAT3 and OATP1B1, and 0.1 μM [^3H]EG for OATP1B3. […] Then the uptake of probe substrates into HEK293-mock cells and HEK293-OCT1, -OCT2, -OAT1, -OAT3, -OATP1B1, and -OATP1B3 cells in the presence and absence of typical inhibitor or each ginsenoside with previously described concentration range was measured for 5 min. Immediately after placing the plates on ice, the cells were washed three times with 100 μL of ice-cold HBSS, followed by lysing with 50 μL of 10% SDS solution and mixing with 150 μL of Optiphase cocktail solution (Perkin Elmer Inc., Boston, MA, USA). The radioactivity of the probe substrates in the cells was determined using a liquid scintillation counter.
(§4) In the inhibition studies, the uptake rate of substrate by HEK293 cells overexpressing the respective transporters was used as the control (100%) and the uptake rate of substrates in the presence of typical inhibitors or ginsenosides expressed as a percentage of the control. The inhibition data were fitted to an inhibitory effect model using Sigma plot (version 10.0; Systat Software Inc., San Jose, CA, USA). IC50 value indicated the half-maximal inhibitory concentration of the inhibitor.

OCT2 = biological target: T2, OCT2 (Homo sapiens, UniProt O15244); test: Inhibition of OCT2-mediated [3H]MPP+ uptake in HEK293-OCT2 cells
T2 sequence (O15244 1-555): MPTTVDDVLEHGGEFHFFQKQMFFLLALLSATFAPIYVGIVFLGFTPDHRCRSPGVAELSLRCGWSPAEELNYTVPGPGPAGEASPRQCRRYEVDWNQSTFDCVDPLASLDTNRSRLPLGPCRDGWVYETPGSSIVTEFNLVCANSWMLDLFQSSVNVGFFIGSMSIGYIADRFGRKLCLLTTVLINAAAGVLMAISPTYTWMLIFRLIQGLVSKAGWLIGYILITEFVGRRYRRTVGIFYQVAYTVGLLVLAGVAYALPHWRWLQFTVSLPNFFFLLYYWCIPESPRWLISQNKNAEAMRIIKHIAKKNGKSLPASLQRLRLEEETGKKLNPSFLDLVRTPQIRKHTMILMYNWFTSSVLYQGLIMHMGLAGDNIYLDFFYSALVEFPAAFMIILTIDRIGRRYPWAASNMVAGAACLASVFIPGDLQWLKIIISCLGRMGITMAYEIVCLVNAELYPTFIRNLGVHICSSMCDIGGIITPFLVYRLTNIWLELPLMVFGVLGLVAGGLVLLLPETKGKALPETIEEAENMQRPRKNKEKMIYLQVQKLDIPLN
Protocol: as §1, §2, §3, §4

OATP1B3 = biological target: T3, OATP1B3 (Homo sapiens, UniProt Q9NPD5); test: Inhibition of OATP1B3-mediated [3H]estradiol-17β-D-glucuronide uptake in HEK293-OATP1B3 cells
T3 sequence (Q9NPD5 1-702): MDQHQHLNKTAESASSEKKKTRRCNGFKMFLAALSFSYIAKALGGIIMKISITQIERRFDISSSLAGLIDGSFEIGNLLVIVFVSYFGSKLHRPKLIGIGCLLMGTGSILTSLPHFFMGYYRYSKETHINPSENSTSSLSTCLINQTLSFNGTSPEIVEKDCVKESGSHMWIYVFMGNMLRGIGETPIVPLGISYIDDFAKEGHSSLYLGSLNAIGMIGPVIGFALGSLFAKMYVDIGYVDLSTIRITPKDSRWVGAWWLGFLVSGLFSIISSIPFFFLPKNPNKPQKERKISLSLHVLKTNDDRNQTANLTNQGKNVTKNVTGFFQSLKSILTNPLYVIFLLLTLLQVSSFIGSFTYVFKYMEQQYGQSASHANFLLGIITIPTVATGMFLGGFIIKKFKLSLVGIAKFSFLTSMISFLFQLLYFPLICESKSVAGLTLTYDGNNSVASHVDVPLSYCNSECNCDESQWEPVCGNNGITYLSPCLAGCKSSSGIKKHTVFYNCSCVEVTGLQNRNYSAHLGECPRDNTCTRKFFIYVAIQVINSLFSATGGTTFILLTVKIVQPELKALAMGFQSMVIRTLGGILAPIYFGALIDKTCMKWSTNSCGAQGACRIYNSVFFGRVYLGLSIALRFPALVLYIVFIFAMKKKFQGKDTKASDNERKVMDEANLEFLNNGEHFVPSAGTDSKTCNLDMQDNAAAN
Protocol: as §1, §2, §3, §4

[1] = read-out: IC50 OATP1B1, HEK293-OATP1B1, 0.1 μM [3H]ES uptake, 5 min
[2] = read-out: IC50 OCT2, HEK293-OCT2, 0.1 μM [3H]MPP+ uptake, 5 min
[3] = read-out: IC50 OATP1B3, HEK293-OATP1B3, 0.1 μM [3H]EG uptake, 5 min
[4] = HEK293-OATP1B1, 0.1 μM [3H]ES uptake, 5 min
[5] = HEK293-OATP1B3, 0.1 μM [3H]EG uptake, 5 min

| IC50 (OATP1B1) [µM] | IC50 (OCT2) [µM] | IC50 (OATP1B3) [µM] | IC50 OATP1B3 (OATP1B3; [5]) | Compound | IC50 (OATP1B1; [1]) [µM] | IC50 (OCT2; [2]) [µM] | IC50 (OATP1B3; [3]) [µM] | IC50 OATP1B1 (OATP1B1; [4]) |
| --- | --- | --- | --- | --- | --- | --- | --- | --- |
| 68.2 | > 100 | 2.28 |  | CC(C)=CCC[C@](C)(O[C@@H]1O[C@H](CO[C@@H]2O[C@H](CO)[C@@H](O)[C@H](O)[C@H]2O)[C@@H](O)[C@H](O)[C@H]1O)[C@H]1CC[C@]2(C)[C@@H]1[C@H](O)C[C@@H]1[C@@]3(C)CC[C@H](O[C@@H]4O[C@H](CO)[C@@H](O)[C@H](O)[C@H]4O[C@@H]4O[C@H](CO)[C@@H](O)[C@H](O)[C@H]4O)C(C)(C)[C@@H]3CC[C@]12C [Rb1, ginsenoside Rb1] |  |  |  |  |
| 15.9 | > 100 | 25.8 |  | CC(C)=CCC[C@](C)(O[C@@H]1O[C@H](CO)[C@@H](O)[C@H](O)[C@H]1O)[C@H]1CC[C@]2(C)[C@@H]1[C@H](O)C[C@@H]1[C@@]3(C)CC[C@H](O[C@@H]4O[C@H](CO)[C@@H](O)[C@H](O)[C@H]4O[C@@H]4O[C@H](CO)[C@@H](O)[C@H](O)[C@H]4O)C(C)(C)[C@@H]3CC[C@]12C [Rd, ginsenoside Rd] |  |  |  |  |
| > 100 | > 100 | > 100 | did not inhibit | CC(C)=CCC[C@](C)(O[C@@H]1O[C@H](CO)[C@@H](O)[C@H](O)[C@H]1O)[C@H]1CC[C@]2(C)[C@@H]1[C@H](O)C[C@@H]1[C@@]3(C)CC[C@H](O)C(C)(C)[C@@H]3[C@@H](O[C@@H]3O[C@H](CO)[C@@H](O)[C@H](O)[C@H]3O[C@@H]3O[C@@H](C)[C@H](O)[C@@H](O)[C@H]3O)C[C@]12C [Re, ginsenoside Re] |  |  |  | did not inhibit |
| 18.3 | > 100 | 1.36 |  | CC(C)=CCC[C@](C)(O[C@@H]1O[C@H](CO[C@@H]2O[C@@H](CO)[C@H](O)[C@H]2O)[C@@H](O)[C@H](O)[C@H]1O)[C@H]1CC[C@]2(C)[C@@H]1[C@H](O)C[C@@H]1[C@@]3(C)CC[C@H](O[C@@H]4O[C@H](CO)[C@@H](O)[C@H](O)[C@H]4O[C@@H]4O[C@H](CO)[C@@H](O)[C@H](O)[C@H]4O)C(C)(C)[C@@H]3CC[C@]12C [Rc, ginsenoside Rc] |  |  |  |  |
| > 100 | > 100 | > 100 | did not inhibit | CC(C)=CCC[C@](C)(O[C@@H]1O[C@H](CO)[C@@H](O)[C@H](O)[C@H]1O)[C@H]1CC[C@]2(C)[C@@H]1[C@H](O)C[C@@H]1[C@@]3(C)CC[C@H](O)C(C)(C)[C@@H]3[C@@H](O[C@@H]3O[C@H](CO)[C@@H](O)[C@H](O)[C@H]3O)C[C@]12C [Rg1, ginsenoside Rg1] |  |  |  | did not inhibit |
| 47.6 | > 100 | 1.76 |  | CC(C)=CCC[C@](C)(O[C@@H]1O[C@H](CO[C@@H]2OC[C@H](O)[C@H](O)[C@H]2O)[C@@H](O)[C@H](O)[C@H]1O)[C@H]1CC[C@]2(C)[C@@H]1[C@H](O)C[C@@H]1[C@@]3(C)CC[C@H](O[C@@H]4O[C@H](CO)[C@@H](O)[C@H](O)[C@H]4O[C@@H]4O[C@H](CO)[C@@H](O)[C@H](O)[C@H]4O)C(C)(C)[C@@H]3CC[C@]12C [Rb2, ginsenoside Rb2] |  |  |  |  |

More lines, now with the values behind:

| Compound | IC50 (OATP1B1) [µM] | IC50 (OCT2) [µM] | IC50 (OATP1B3) [µM] | IC50 OATP1B3 (OATP1B3; [5]) | IC50 (OATP1B1; [1]) [µM] | IC50 (OCT2; [2]) [µM] | IC50 (OATP1B3; [3]) [µM] | IC50 OATP1B1 (OATP1B1; [4]) |
| --- | --- | --- | --- | --- | --- | --- | --- | --- |
| CC(C)=CCC[C@](C)(O[C@@H]1O[C@H](CO)[C@@H](O)[C@H](O)[C@H]1O)[C@H]1CC[C@]2(C)[C@@H]1[C@H](O)C[C@@H]1[C@@]3(C)CC[C@H](O)C(C)(C)[C@@H]3CC[C@]12C [Compound K, compound K] |  |  |  |  | 22.5 | > 100 | 8.25 |  |
| CC(C)=CCC[C@](C)(O)[C@H]1CC[C@]2(C)[C@@H]1[C@H](O)C[C@@H]1[C@@]3(C)CC[C@H](O[C@@H]4O[C@H](CO)[C@@H](O)[C@H](O)[C@H]4O)C(C)(C)[C@@H]3CC[C@]12C [Rh2, ginsenoside Rh2] | 22.3 | > 100 | 30.8 |  |  |  |  |  |
| CC(C)=CCCC(C)(O)[C@H]1CC[C@]2(C)[C@@H]1[C@H](O)C[C@@H]1[C@@]3(C)CC[C@H](O)C(C)(C)[C@@H]3CC[C@]12C (stereo in doubt) [PPD, protopanaxadiol] |  |  |  |  | > 100 | > 100 | > 100 |  |
| CC(C)=CCC[C@](C)(O)[C@H]1CC[C@]2(C)[C@@H]1[C@H](O)C[C@@H]1[C@@]3(C)CC[C@H](O)C(C)(C)[C@@H]3[C@@H](O[C@@H]3O[C@H](CO)[C@@H](O)[C@H](O)[C@H]3O)C[C@]12C [Rh1, ginsenoside Rh1] | > 100 | > 100 | > 100 | did not inhibit |  |  |  | did not inhibit |
| CC(C)=CCC[C@](C)(O)[C@H]1CC[C@]2(C)[C@@H]1[C@H](O)C[C@@H]1[C@@]3(C)CC[C@H](O)C(C)(C)[C@@H]3[C@@H](O)C[C@]12C [PPT, protopanaxatriol] |  |  |  |  | > 100 | > 100 | 20.3 | did not inhibit |
| CC(C)=CCC[C@](C)(O)[C@H]1CC[C@]2(C)[C@@H]1[C@H](O)C[C@@H]1[C@@]3(C)CC[C@H](O[C@@H]4O[C@H](CO)[C@@H](O)[C@H](O)[C@H]4O[C@@H]4O[C@H](CO)[C@@H](O)[C@H](O)[C@H]4O)C(C)(C)[C@@H]3CC[C@]12C [Rg3, ginsenoside Rg3] |  |  |  |  | 7.99 | > 100 | 5.13 |  |
